Consider 25 compounds from patent US20100311714A1, “1H-IMIDAZO[4,5-c]QUINOLINONE COMPOUNDS” (priority 2009, published 2010).

Values after ≈ are worked out from the molar mass of the structure shown. Like-named read-outs stand apart in the source and are kept apart here.

The nature of data set [1]: High-throughput equilibrium solubility at pH 6.8. As to conditions: pH 6.8, aqueous buffer, thermodynamic from solid; read-out: HT-Eq Sol/pH 6.8. The class given is physicochemical. The text has this:
The physicochemical properties of relevance for the absorption of the compound, such as the solubility and the membrane permeability, especially at a pH close to neutral pH can be measured using the procedure as described by L. ZHOU et al. in JOURNAL OF PHARMACEUTICAL SCIENCES, VOL. 96, NO. 11, p. 3052-3071 (2007) for the solubility at pH 6.8 and the procedure as described by F. Wohnsland and B. Faller in Journal of Medicinal Chemistry Vol 44, p. 923-930 (2001) for the Parallel Artificial Membrane Permeability Assay (PAMPA) at pH 6.8.

The next data set has as its target T1, PI3K beta (Homo sapiens, UniProt P42338).
T1 construct: for the full-length p110-b subunit are generated and fused by overlapping PCR; His tag (C); made in house; host or cells: baculovirus BV949; Tn5 (Trichoplusia ni) or TiniPro insect cells
The experiment in a line: PI3K beta kinase assay (Kinase-Glo luminescence). The format is biochemical. The gist of the method: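 Kinase-Glo luminescence read out ATP left after a 60-min room-temperature reaction, started with ATP (1 μM final) on 25 nM His-tagged p85 iSH2–p110β (BV949) plus 10 μg/mL PI substrate in pH 7.5 Tris buffer. Percent inhibition at eight concentrations was fitted to a four-parameter logistic model for IC50.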
(In general: In Kinase-Glo more light means more ATP remaining.)

T1 sequence (P42338 with tags, fused parts or gaps limits assumed): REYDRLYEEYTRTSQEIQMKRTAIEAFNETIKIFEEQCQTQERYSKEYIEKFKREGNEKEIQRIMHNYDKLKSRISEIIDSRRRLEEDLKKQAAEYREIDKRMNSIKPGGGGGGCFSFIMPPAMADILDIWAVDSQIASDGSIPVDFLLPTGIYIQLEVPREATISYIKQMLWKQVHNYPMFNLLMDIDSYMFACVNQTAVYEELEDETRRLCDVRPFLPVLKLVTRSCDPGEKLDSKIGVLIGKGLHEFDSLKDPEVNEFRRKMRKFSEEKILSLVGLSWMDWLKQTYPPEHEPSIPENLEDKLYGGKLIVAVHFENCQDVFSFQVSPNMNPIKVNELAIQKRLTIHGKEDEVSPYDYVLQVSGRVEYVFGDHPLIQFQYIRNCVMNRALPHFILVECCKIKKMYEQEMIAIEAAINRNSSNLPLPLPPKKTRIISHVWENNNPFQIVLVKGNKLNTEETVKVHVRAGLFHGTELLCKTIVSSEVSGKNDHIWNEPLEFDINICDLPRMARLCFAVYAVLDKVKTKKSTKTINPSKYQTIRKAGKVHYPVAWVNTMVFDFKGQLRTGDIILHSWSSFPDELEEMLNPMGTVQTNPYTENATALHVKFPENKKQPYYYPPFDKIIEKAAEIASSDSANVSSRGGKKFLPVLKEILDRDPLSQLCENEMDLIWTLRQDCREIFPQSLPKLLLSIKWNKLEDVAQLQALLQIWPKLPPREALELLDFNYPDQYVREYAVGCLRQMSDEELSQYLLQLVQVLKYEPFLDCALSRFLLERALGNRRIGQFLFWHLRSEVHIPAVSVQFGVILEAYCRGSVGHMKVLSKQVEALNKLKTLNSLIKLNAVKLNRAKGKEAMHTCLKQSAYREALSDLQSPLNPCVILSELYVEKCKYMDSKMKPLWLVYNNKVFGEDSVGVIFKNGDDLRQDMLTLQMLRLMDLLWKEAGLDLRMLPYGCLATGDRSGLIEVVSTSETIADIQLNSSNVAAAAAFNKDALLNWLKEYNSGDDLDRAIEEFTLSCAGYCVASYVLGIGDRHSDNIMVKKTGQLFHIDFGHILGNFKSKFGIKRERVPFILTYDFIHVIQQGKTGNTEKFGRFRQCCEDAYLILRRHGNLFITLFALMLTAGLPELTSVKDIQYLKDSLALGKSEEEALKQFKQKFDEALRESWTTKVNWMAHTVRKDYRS

As to `CNc1ccc(-c2ccc3ncc4c(c3c2)n(-c2cccnc2C)c(=O)n4C)cn1` [Example 2.13, 3-Methyl-8-(6-methylamino-pyridin-3-yl)-1-(2-methyl-pyridin-3-yl)-1,3-dihydro-imidazo[4,5-c]quinolin-2-one], in data set [1], the solubility thermodynamic came to 56 µg/mL (≈ 141 µM). Also, the IC50 on PI3K beta (read-out: PI3Kbeta/IC50) is 226 nM.

In the case of `Cc1ncccc1-n1c(=O)n(C)c2cnc3ccc(-c4cnc(N(C)C)nc4)cc3c21` [Example 2.15, 8-(2-Dimethylamino-pyrimidin-5-yl)-3-methyl-1-(2-methyl-pyridin-3-yl)-1,3-dihydro-imidazo[4,5-c]quinolin-2-one], in data set [1], the solubility thermodynamic was determined as 11 µg/mL (≈ 26.7 µM). The IC50 on PI3K beta (read-out: PI3Kbeta/IC50) was 360 nM.

Regarding `Cc1ncccc1-n1c(=O)n(C)c2cnc3ccc(-c4cncc(NC(C)C)c4)cc3c21` [Example 2.24, 8-(5-Isopropylamino-pyridin-3-yl)-3-methyl-1-(2-methyl-pyridin-3-yl)-1,3-dihydro-imidazo[4,5-c]quinolin-2-one], in data set [1], the solubility thermodynamic amounted to 196 µg/mL (≈ 462 µM). In addition, the IC50 on PI3K beta (read-out: EPK_PI3Kbeta/IC50) stood at 40 nM.

For the compound `Cc1ncccc1-n1c(=O)n(C)c2cnc3ccc(-c4cncc(N)c4)cc3c21` [Example 2.25, 8-(5-Amino-pyridin-3-yl)-3-methyl-1-(2-methyl-pyridin-3-yl)-1,3-dihydro-imidazo[4,5-c]quinolin-2-one], the solubility thermodynamic in data set [1] stood at 228 µg/mL (≈ 596 µM). Moreover, at PI3K beta (read-out: EPK_PI3Kbeta/IC50), the IC50 worked out at 143 nM.

As for `CNc1cncc(-c2ccc3ncc4c(c3c2)n(-c2cccnc2C)c(=O)n4C)c1` [Example 2.26, 3-Methyl-8-(5-methylamino-pyridin-3-yl)-1-(2-methyl-pyridin-3-yl)-1,3-dihydro-imidazo[4,5-c]quinolin-2-one], the solubility thermodynamic in data set [1] came to 115 µg/mL (≈ 290 µM). Moreover, the IC50 on PI3K beta (read-out: EPK_PI3Kbeta/IC50) was determined as 31 nM.

For `COc1cc(-c2ccc3ncc4c(c3c2)n(-c2cccnc2C)c(=O)n4C)cnc1C(OC)OC` [Example 2.27, 8-(6-Dimethoxymethyl-5-methoxy-pyridin-3-yl)-3-methyl-1-(2-methyl-pyridin-3-yl)-1,3-dihydro-imidazo[4,5-c]quinolin-2-one], the solubility thermodynamic in data set [1] is greater than 472 µg/mL. Also, the IC50 on PI3K beta (read-out: EPK_PI3Kbeta/IC50) was determined as 1240 nM.

For `CCOc1cc(-c2ccc3ncc4c(c3c2)n(-c2cccnc2C)c(=O)n4C)cnc1COC` [Example 2.28, 8-(5-Ethoxy-6-methoxymethyl-pyridin-3-yl)-3-methyl-1-(2-methyl-pyridin-3-yl)-1,3-dihydro-imidazo[4,5-c]quinolin-2-one], the solubility thermodynamic in data set [1] amounted to 51 µg/mL (≈ 112 µM). Also, on PI3K beta (read-out: EPK_PI3Kbeta/IC50), the IC50 is 563 nM.

As for `Cc1ncccc1-n1c(=O)n(C)c2cnc3ccc(-c4cncc(N5CCC5)c4)cc3c21` [Example 2.29, 8-(5-Azetidin-1-yl-pyridin-3-yl)-3-methyl-1-(2-methyl-pyridin-3-yl)-1,3-dihydro-imidazo[4,5-c]quinolin-2-one], the solubility thermodynamic in data set [1] was found to be 8 µg/mL (≈ 18.9 µM). For the same compound, on PI3K beta (read-out: EPK_PI3Kbeta/IC50), the IC50 worked out at 782 nM.

As to `CCNc1cc(-c2ccc3ncc4c(c3c2)n(-c2cccnc2C)c(=O)n4C)cnc1CO` [Example 2.31, 8-(5-Ethylamino-6-hydroxymethyl-pyridin-3-yl)-3-methyl-1-(2-methyl-pyridin-3-yl)-1,3-dihydro-imidazo[4,5-c]quinolin-2-one], in data set [1], the solubility thermodynamic was determined as 27 µg/mL (≈ 61.3 µM). In addition, the IC50 at PI3K beta (read-out: EPK_PI3Kbeta/IC50) was 67 nM.

Consider `CNc1cc(-c2ccc3ncc4c(c3c2)n(-c2cccnc2C)c(=O)n4C)cnc1C` [Example 2.32, 3-Methyl-8-(6-methyl-5-methylamino-pyridin-3-yl)-1-(2-methyl-pyridin-3-yl)-1,3-dihydro-imidazo[4,5-c]quinolin-2-one], for which the solubility thermodynamic in data set [1] turned out to be 127 µg/mL (≈ 309 µM). Also, the IC50 at PI3K beta (read-out: EPK_PI3Kbeta/IC50) was 61 nM.

As to `Cc1cccnc1-n1c(=O)n(C)c2cnc3ccc(-c4cnc(N)c(C(F)(F)F)c4)cc3c21` [Example 3.12, 8-(6-Amino-5-trifluoromethyl-pyridin-3-yl)-3-methyl-1-(3-methyl-pyridin-2-yl)-1,3-dihydro-imidazo[4,5-c]quinolin-2-one], in data set [1], the solubility thermodynamic is 12 µg/mL (≈ 26.6 µM). Besides, the IC50 at PI3K beta (read-out: PI3Kbeta/IC50) came out at 109 nM.

In the case of `COc1ccc(-c2ccc3ncc4c(c3c2)n(-c2cnccc2C)c(=O)n4C)cn1` [Example 4.3, 8-(6-Methoxy-pyridin-3-yl)-3-methyl-1-(4-methyl-pyridin-3-yl)-1,3-dihydro-imidazo[4,5-c]quinolin-2-one], the solubility thermodynamic in data set [1] came to 129 µg/mL (≈ 325 µM). Further, at PI3K beta (read-out: PI3Kbeta/IC50), the IC50 came out at 601 nM.

`Cn1c(=O)n(-c2cccnc2)c2c3cc(-c4ccc(CO)nc4)ccc3ncc21` [Example 5.1, 8-(6-Hydroxymethyl-pyridin-3-yl)-3-methyl-1-pyridin-3-yl-1,3-dihydro-imidazo[4,5-c]quinolin-2-one]: the solubility thermodynamic in data set [1] came out at 15 µg/mL (≈ 39.1 µM). In addition, the IC50 on PI3K beta (read-out: PI3Kbeta/IC50) worked out at 801 nM.

`CCOc1ccc(-c2ccc3ncc4c(c3c2)n(-c2cccnc2F)c(=O)n4C)cn1` [Example 6.1, 8-(6-Ethoxy-pyridin-3-yl)-1-(2-fluoro-pyridin-3-yl)-3-methyl-1,3-dihydro-imidazo[4,5-c]quinolin-2-one]: in data set [1], the solubility thermodynamic amounted to 2 µg/mL (≈ 4.81 µM). At PI3K beta (read-out: PI3Kbeta/IC50), the IC50 is 223 nM.

For the compound `Cn1c(=O)n(-c2cccnc2F)c2c3cc(-c4cnc(N)c(C(F)(F)F)c4)ccc3ncc21` [Example 6.2, 8-(6-Amino-5-trifluoromethyl-pyridin-3-yl)-1-(2-fluoro-pyridin-3-yl)-3-methyl-1,3-dihydro-imidazo[4,5-c]quinolin-2-one], the solubility thermodynamic in data set [1] is 6 µg/mL (≈ 13.2 µM). Moreover, the IC50 at PI3K beta (read-out: PI3Kbeta/IC50) worked out at 7 nM.

In the case of `Cc1nc(F)ccc1-n1c(=O)n(C)c2cnc3ccc(-c4cnc(N)c(C(F)(F)F)c4)cc3c21` [Example 7.1, 8-(6-Amino-5-trifluoromethyl-pyridin-3-yl)-1-(6-fluoro-2-methyl-pyridin-3-yl)-3-methyl-1,3-dihydro-imidazo[4,5-c]quinolin-2-one], in data set [1], the solubility thermodynamic came to 47 µg/mL (≈ 100 µM). In addition, the IC50 at PI3K beta (read-out: PI3Kbeta/IC50) is 7 nM.

In the case of `Cc1nc(F)ccc1-n1c(=O)n(C)c2cnc3ccc(-c4cnc5c(ccn5C)c4)cc3c21` [Example 7.2, 1-(6-Fluoro-2-methyl-pyridin-3-yl)-3-methyl-8-(1-methyl-1H-pyrrolo[2,3-b]pyridin-5-yl)-1,3-dihydro-imidazo[4,5-c]quinolin-2-one], the solubility thermodynamic in data set [1] turned out to be 3 µg/mL (≈ 6.84 µM). The IC50 at PI3K beta (read-out: PI3Kbeta/IC50) was found to be 309 nM.

Take `CCOc1ccc(-c2ccc3ncc4c(c3c2)n(-c2ccc(F)nc2C)c(=O)n4C)cn1` [Example 7.3, 8-(6-Ethoxy-pyridin-3-yl)-1-(6-fluoro-2-methyl-pyridin-3-yl)-3-methyl-1,3-dihydro-imidazo[4,5-c]quinolin-2-one]: the solubility thermodynamic in data set [1] was 2 µg/mL (≈ 4.66 µM). The IC50 at PI3K beta (read-out: PI3Kbeta/IC50) stood at 452 nM.

Regarding `CNc1ccc(-c2ccc3ncc4c(c3c2)n(-c2ccc(F)nc2C)c(=O)n4C)cn1` [Example 7.4, 1-(6-Fluoro-2-methyl-pyridin-3-yl)-3-methyl-8-(6-methylamino-pyridin-3-yl)-1,3-dihydro-imidazo[4,5-c]quinolin-2-one], in data set [1], the solubility thermodynamic amounted to 11 µg/mL (≈ 26.5 µM). Moreover, the IC50 on PI3K beta (read-out: PI3Kbeta/IC50) is 263 nM.

For the compound `CCOc1cc(-c2ccc3ncc4c(c3c2)n(-c2ccc(F)nc2C)c(=O)n4C)cnc1COC` [Example 7.5, 8-(5-Ethoxy-6-methoxymethyl-pyridin-3-yl)-1-(6-fluoro-2-methyl-pyridin-3-yl)-3-methyl-1,3-dihydro-imidazo[4,5-c]quinolin-2-one], in data set [1], the solubility thermodynamic was determined as 94 µg/mL (≈ 199 µM). For the same compound, the IC50 on PI3K beta (read-out: EPK_PI3Kbeta/IC50) turned out to be 152 nM.

Consider `Cc1nc(F)ccc1-n1c(=O)n(C)c2cnc3ccc(-c4cncc(C(C)(C)O)c4)cc3c21` [Example 7.8, 1-(6-Fluoro-2-methyl-pyridin-3-yl)-8-[5-(1-hydroxy-1-methyl-ethyl)-pyridin-3-yl]-3-methyl-1,3-dihydro-imidazo[4,5-c]quinolin-2-one], for which the solubility thermodynamic in data set [1] worked out at 372 µg/mL (≈ 839 µM). Besides, the IC50 on PI3K beta (read-out: EPK_PI3Kbeta/IC50) stood at 45 nM.

Turning to `CCOc1ccc(-c2ccc3ncc4c(c3c2)n(-c2ccc(N3CCNCC3)nc2OC)c(=O)n4C)cn1` [Example 9.1, 8-(6-Ethoxy-pyridin-3-yl)-1-(2-methoxy-6-piperazin-1-yl-pyridin-3-yl)-3-methyl-1,3-dihydro-imidazo[4,5-c]quinolin-2-one], the solubility thermodynamic in data set [1] stood at 61 µg/mL (≈ 119 µM). The IC50 at PI3K beta (read-out: PI3Kbeta/IC50) stood at 267 nM.

As to `COc1nc(N2CCNCC2)ccc1-n1c(=O)n(C)c2cnc3ccc(-c4cnc(N)c(C(F)(F)F)c4)cc3c21` [Example 9.2, 8-(6-Amino-5-trifluoromethyl-pyridin-3-yl)-1-(2-methoxy-6-piperazin-1-yl-pyridin-3-yl)-3-methyl-1,3-dihydro-imidazo[4,5-c]quinolin-2-one], in data set [1], the solubility thermodynamic worked out at 13 µg/mL (≈ 23.6 µM). Moreover, the IC50 at PI3K beta (read-out: PI3Kbeta/IC50) stood at 36 nM.

In the case of `Cc1nc(N2CCN(C)C(=O)C2)ccc1-n1c(=O)n(C)c2cnc3ccc(-c4cnc(N)c(C(F)(F)F)c4)cc3c21` [Example 21.1, 8-(6-Amino-5-trifluoromethyl-pyridin-3-yl)-3-methyl-1-[2-methyl-6-(4-methyl-3-oxo-piperazin-1-yl)-pyridin-3-yl]-1,3-dihydro-imidazo[4,5-c]quinolin-2-one], in data set [1], the solubility thermodynamic was found to be 22 µg/mL (≈ 39.1 µM). Moreover, on PI3K beta (read-out: EPK_PI3Kbeta/IC50), the IC50 turned out to be 9 nM.

Consider `CCOc1cc(-c2ccc3ncc4c(c3c2)n(-c2ccc(OCCOC)nc2C)c(=O)n4C)cnc1COC` [Example 22.1, 8-(5-Ethoxy-6-methoxymethyl-pyridin-3-yl)-1-[6-(2-methoxy-ethoxy)-2-methyl-pyridin-3-yl]-3-methyl-1,3-dihydro-imidazo[4,5-c]quinolin-2-one], for which the solubility thermodynamic in data set [1] turned out to be 7 µg/mL (≈ 13.2 µM). In addition, at PI3K beta (read-out: EPK_PI3Kbeta/IC50), the IC50 stood at 429 nM.
